From patent US20160000796A1, “PHARMACEUTICAL COMPOSITION FOR USE IN PREVENTION OR TREATMENT OF CANCER” (priority 2013, published 2016)

Assays:
[1] = tested on: ATL cell line, ED40515 (−); assay: Apoptosis (annexin V flow cytometry), ED40515 (−); format: cell-based; conditions: 100 μM, 24 or 48 hours
Description: DMSO (solvent control), adriamycin (ADR, positive control), or abacavir (100 μM) was added to an ATL cell line, ED40515 (−). The cells were cultured for 24 hours or 48 hours. After the culture of a predetermined time, the cells were stained with annexin V, and annexin V positive cells were measured by flow cytometry. The annexin V positive cells were determined as apoptotic cells.

[2] = tested on: ATL cell line, ED40515 (−); assay: Chromosome double-strand break (Giemsa chromosome specimens), ED40515 (−); format: cell-based; conditions: 48 hours, abacavir 10-100 μM, zidovudine 10 or 100 μM
Description: (§1) Abacavir was added to an ATL cell line, ED40515 (−), at a concentration of 0 μM (DMSO was added instead of abacavir), 10 μM, 25 μM, 50 μM, 75 μM or 100 μM. After the 48 hours culture, the cells were fixed by Carnoy and stained with Giemsa to prepare chromosome specimens in accordance with conventional methods. Similarly, zidovudine was added to ED40515 (−) at a concentration of 10 μM or 100 μM, and abacavir was added to a non-ATL cell line, Jurkat, at a concentration of 100 μM, and chromosome specimens were prepared. Chromosome images (100 or more images per group) were observed by an optical microscope. The cells were determined as being positive for double-strand break (DSB) when at least one chromosome break was found.

[3] = tested on: H9 (non-HTLV-1-infected cell line); assay: Cellular proliferation (MTS assay), H9; format: cell-based; conditions: 100 μM
Description: (§2) Each nucleoside analogue reverse transcriptase inhibitor was added to the medium for cells at a final concentration of 100 μM. Cells were seeded on a 96-well plate at a concentration of 1×10^4 cells/100 μL/well and cultured for 4 hours (Day 0), 48 hours (Day 2) or 96 hours (Day 4). A medium added DMSO (solvent control) alone was used as a control. Cellular proliferation was examined by MTS assay. Specifically, after the cells were cultured for a predetermined time, a reagent for cellular proliferation test, Aqueous One Solution Cell Proliferation (trade name, manufactured by Promega), was added to the cells. Four hours later, absorbance at 490 nm was measured. The cellular proliferation was represented by a ratio relative to that of the control (solvent control) on Day 0 that was regarded as 1.
(§3) This example used non-HTLV-1-infected cell lines: Jurkat (cell line derived from human T-cell leukemia, ATCC No: TIB-152), Kit225 (cell line derived from chronic T-cell leukemia, established in the laboratory of the inventors, Blood. 1987 October; 70 (4): 1069-72.), H9 (cell line derived from cutaneous T-cell lymphoma, ATCC No: HTB-176) and SUDHL6 (cell line derived from diffuse B cell lymphoma).
(§4) The six types of nucleoside analogue reverse transcriptase inhibitors as used in Example 1 were used and cellular proliferation was examined in the same manner as in Example 1.

[4] = tested on: TDP1-knocked-down cells (Jurkat); assay: Cellular proliferation (MTS) of TDP1-knocked-down cells; format: cell-based, human; conditions: TDP1 siRNA-introduced Jurkat versus control siRNA-introduced cells; 300 μM; 48 hours
Description: The cells were cultured for 48 hours. MTS assay was performed using a reagent for cellular proliferation test, Aqueous One Solution Cell Proliferation (trade name, manufactured by Promega), in the same manner as in Example 1.

[5] = tested on: SUDHL6 (non-HTLV-1-infected cell line); assay: Cellular proliferation (MTS assay), SUDHL6; format: cell-based; conditions: 100 μM
Description: as §2, §3, §4

[6] = tested on: ED40515 (−) (non-virus-producing ATL cell line); assay: Cellular proliferation (MTS assay), ED40515 (−); format: cell-based
Description: as §2
This example used HTLV-1-infected cell lines (non-virus-producing ATL cell lines): ED40515 (−), ED40515 (+), and ATL43T (all were provided by Prof. Michiyuki Maeda who produced the cells); and SYK-11L (+) (prepared in the laboratory of the inventors).
The six types of nucleoside analogue reverse transcriptase inhibitors as used in Example 1 were used and cellular proliferation was examined in the same manner as in Example 1. […]

[7] = tested on: Kit225 (non-HTLV-1-infected cell line); assay: Cellular proliferation (MTS assay), Kit225; format: cell-based; conditions: 100 μM
Description: as §2, §3, §4

[8] = tested on: HTLV-1; assay: Measurement of amount of virus (HTLV-1 P19 ELISA), HUT102; format: cell-based, human T-cell leukemia virus type 1; conditions: 100 μM, Day 0, 2, 4, 7, compared among six NRTIs
Description: HTLV-1-producing cell lines, MT2 (transformant with HTLV-1, JCRB cell No: JCRB1210) and HUT102 (ATL-derived cell line, ATCC No: TIB-162), were used.
Each nucleoside analogue reverse transcriptase inhibitor was added to the medium for cells at a final concentration of 100 μM. Cells were seeded on a 96-well plate at a concentration of 1×10^4 cells/100 μL/well and cultured for 0 hour (Day 0), 48 hours (2 days), 96 hours (4 days) or 168 hours (7 days). At each time point, the medium was collected. The amount of virus contained in the medium collected at each time point (pg/mL) was measured by HTLV-1 P19 ELISA kit (manufactured by Zeptometrix).

[9] = tested on: ATL cell line, ED40515 (−); assay: Cell-cycle analysis by flow cytometry (PI), ED40515 (−); format: cell-based; conditions: 10 μM or 100 μM, 24 hours
Description: To an ATL cell line, ED40515 (−), or a non-ATL cell line, Jurkat, DMSO (solvent control), adriamycin (ADR, positive control) or abacavir (10 μM or 100 μM) was added.

[10] = tested on: non-ATL cell line, Jurkat; assay: Chromosome double-strand break (Giemsa chromosome specimens), Jurkat; format: cell-based, human; conditions: 100 μM, 48 hours
Description: as §1

## Nc1nc(NC2CC2)c2ncn([C@H]3C=C[C@@H](CO)C3)c2n1 [abacavir, (−)-(1S,4R)-4-[2-amino-6-(cyclopropylamino)-9H-purin-9-yl]-2-cyclopentene-1-methanol]
[1]
  apoptosis (annexin V positive cells): induced apoptosis
[2]
  ratio of double-strand break-positive cells: increased the ratio of double-strand break-positive cells in a dose-dependent manner
[3]
  cellular proliferation: did not exhibit a suppressive effect
[4]
  cellular proliferation relative to abacavir-non-treated cells (100%): significantly lower
[5]
  cellular proliferation: did not exhibit a suppressive effect
[6]; 100 μM
  cellular proliferation: strong suppressive effect
[6]; 10-100 μM, Day 0, 2, 4
  cellular proliferation, dose dependence: suppressed cellular proliferation of all the cell lines in a dose-dependent manner
[7]
  cellular proliferation: did not exhibit a suppressive effect
[8]
  viral production (amount of virus in the medium): most strongly suppressed
[9]
  cell cycle (ratio of cells in G0G1/S/G2 phase): induced the S/G2 arrest
[10]
  ratio of double-strand break-positive cells: did not induce double-strand break
